Assay results taken from BindingDB's records for patent US20230312550 (Astrazeneca, 2023).

target: T1, Prolyl endopeptidase FAP (Homo sapiens, UniProt Q12884); assay: hFAP Binding Assay; details: not given
T1 sequence (Q12884 whole entry): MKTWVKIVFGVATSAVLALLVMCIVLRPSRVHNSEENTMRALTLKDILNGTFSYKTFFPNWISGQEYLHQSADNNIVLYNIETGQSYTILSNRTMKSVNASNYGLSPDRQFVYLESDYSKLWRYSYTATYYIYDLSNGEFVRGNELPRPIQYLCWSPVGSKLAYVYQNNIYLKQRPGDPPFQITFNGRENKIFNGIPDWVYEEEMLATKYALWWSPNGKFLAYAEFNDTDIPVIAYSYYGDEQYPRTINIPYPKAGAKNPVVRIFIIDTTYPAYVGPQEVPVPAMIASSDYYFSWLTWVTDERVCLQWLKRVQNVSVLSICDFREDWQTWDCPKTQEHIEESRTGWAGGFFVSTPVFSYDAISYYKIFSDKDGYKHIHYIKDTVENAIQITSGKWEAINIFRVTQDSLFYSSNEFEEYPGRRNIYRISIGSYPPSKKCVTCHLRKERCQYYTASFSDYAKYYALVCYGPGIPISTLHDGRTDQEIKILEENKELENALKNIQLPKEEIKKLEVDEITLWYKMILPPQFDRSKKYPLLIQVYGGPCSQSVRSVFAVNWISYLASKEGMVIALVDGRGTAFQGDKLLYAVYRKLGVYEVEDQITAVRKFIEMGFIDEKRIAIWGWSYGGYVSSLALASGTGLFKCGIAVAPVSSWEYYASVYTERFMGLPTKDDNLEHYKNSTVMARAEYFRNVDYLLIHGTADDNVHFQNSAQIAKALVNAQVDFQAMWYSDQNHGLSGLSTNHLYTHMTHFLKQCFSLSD

koff | Structure (SMILES)
0.00022 s⁻¹ | CO[C@@H]1CN(c2ccc3nccc(C(=O)NCC(=O)N4CSC[C@H]4C#N)c3c2)[C@H]1C [US20230312550, Example 30]
0.00024 s⁻¹ | N#C[C@@H]1CSCN1C(=O)CNC(=O)c1ccnc2ccc(N3CC(F)(C4CC4)C3)cc12 [US20230312550, Example 31]
2.9e-05 s⁻¹ | N#C[C@@H]1CSCN1C(=O)CNC(=O)c1ccnc2ccc(N3CCCCC3)cc12 [US20230312550, Example 32]
5.2e-05 s⁻¹ | CC1(C)CCN(c2ccc3nccc(C(=O)NCC(=O)N4CSC[C@H]4C#N)c3c2)CC1 [US20230312550, Example 33]
8.2e-05 s⁻¹ | CC1(F)CCN(c2ccc3nccc(C(=O)NCC(=O)N4CSC[C@H]4C#N)c3c2)CC1 [US20230312550, Example 34]
0.0001 s⁻¹ | N#C[C@@H]1CSCN1C(=O)CNC(=O)c1ccnc2ccc(N3CCC(F)(F)CC3)cc12 [US20230312550, Example 35]
9e-05 s⁻¹ | N#C[C@@H]1CSCN1C(=O)CNC(=O)c1ccnc2ccc(N3CCCC(F)(F)C3)cc12 [US20230312550, Example 36]
3e-05 s⁻¹ | CC1(CF)CCN(c2ccc3nccc(C(=O)NCC(=O)N4CSC[C@H]4C#N)c3c2)CC1 [US20230312550, Example 37]
7.8e-05 s⁻¹ | CC1(C)CN(c2ccc3nccc(C(=O)NCC(=O)N4CSC[C@H]4C#N)c3c2)CCC1(F)F [US20230312550, Example 38]
0.00016 s⁻¹ | N#C[C@@H]1CSCN1C(=O)CNC(=O)c1ccnc2ccc(N3CCC(C(F)(F)F)CC3)cc12 [US20230312550, Example 39]
6.4e-05 s⁻¹ | CO[C@H]1CCCN(c2ccc3nccc(C(=O)NCC(=O)N4CSC[C@H]4C#N)c3c2)C1 [US20230312550, Example 41]
5.4e-05 s⁻¹ | COC1(C)CCN(c2ccc3nccc(C(=O)NCC(=O)N4CSC[C@H]4C#N)c3c2)CC1 [US20230312550, Example 42]
1.9e-05 s⁻¹ | CC(C)OC1CCN(c2ccc3nccc(C(=O)NCC(=O)N4CSC[C@H]4C#N)c3c2)CC1 [US20230312550, Example 43]
7.2e-05 s⁻¹ | C[C@H]1CC(F)(F)CCN1c1ccc2nccc(C(=O)NCC(=O)N3CSC[C@H]3C#N)c2c1 [US20230312550, Example 44]
0.00018 s⁻¹ | N#C[C@@H]1CSCN1C(=O)CNC(=O)c1ccnc2ccc(N3CCCC[C@H]3CF)cc12 [US20230312550, Example 45]
6.2e-05 s⁻¹ | N#C[C@@H]1CSCN1C(=O)CNC(=O)c1ccnc2ccc(N3CCCC4(CC4)C3)cc12 [US20230312550, Example 46]
8.9e-05 s⁻¹ | CC1(C)CCN(c2ccc3nccc(C(=O)NCC(=O)N4CSC[C@H]4C#N)c3c2)C1 [US20230312550, Example 48]
0.00017 s⁻¹ | N#C[C@@H]1CSCN1C(=O)CNC(=O)c1ccnc2ccc(N3CCC4(CC4)C3)cc12 [US20230312550, Example 49]
0.00011 s⁻¹ | N#C[C@@H]1CSCN1C(=O)CNC(=O)c1ccnc2ccc(N3CC[C@H](F)C3)cc12 [US20230312550, Example 51]
0.00019 s⁻¹ | N#C[C@@H]1CSCN1C(=O)CNC(=O)c1ccnc2ccc(N3CC[C@@H](F)C3)cc12 [US20230312550, Example 52]
5e-05 s⁻¹ | N#C[C@@H]1CSCN1C(=O)CNC(=O)c1ccnc2ccc(N3CC4CCCC4C3)cc12 (some centres not stated) [US20230312550, Example 53]
0.00023 s⁻¹ | C[C@H]1CCN(c2ccc3nccc(C(=O)NCC(=O)N4CSC[C@H]4C#N)c3c2)C1 [US20230312550, Example 54]
0.00025 s⁻¹ | C[C@@H]1CCN(c2ccc3nccc(C(=O)NCC(=O)N4CSC[C@H]4C#N)c3c2)C1 [US20230312550, Example 55]
0.00011 s⁻¹ | N#C[C@@H]1CSCN1C(=O)CNC(=O)c1ccnc2ccc(N3CCC[C@H]3C(F)(F)F)cc12 [US20230312550, Example 56]
0.00018 s⁻¹ | CC1(C)CCCN1c1ccc2nccc(C(=O)NCC(=O)N3CSC[C@H]3C#N)c2c1 [US20230312550, Example 57]
0.091 s⁻¹ | N#C[C@@H]1CSCN1C(=O)CNC(=O)c1ccnc2ccc(N3CC4(CC4)C[C@@H]3CF)cc12 [US20230312550, Example 58]

same assay, conditions: read-out: kon (M-1-s-1)

kon | Structure (SMILES)
5.2e+06 M⁻¹ s⁻¹ | CO[C@@H]1CN(c2ccc3nccc(C(=O)NCC(=O)N4CSC[C@H]4C#N)c3c2)[C@H]1C [US20230312550, Example 30]
9.7e+06 M⁻¹ s⁻¹ | N#C[C@@H]1CSCN1C(=O)CNC(=O)c1ccnc2ccc(N3CC(F)(C4CC4)C3)cc12 [US20230312550, Example 31]
1.3e+06 M⁻¹ s⁻¹ | N#C[C@@H]1CSCN1C(=O)CNC(=O)c1ccnc2ccc(N3CCCCC3)cc12 [US20230312550, Example 32]
1.1e+06 M⁻¹ s⁻¹ | CC1(C)CCN(c2ccc3nccc(C(=O)NCC(=O)N4CSC[C@H]4C#N)c3c2)CC1 [US20230312550, Example 33]
2.2e+06 M⁻¹ s⁻¹ | CC1(F)CCN(c2ccc3nccc(C(=O)NCC(=O)N4CSC[C@H]4C#N)c3c2)CC1 [US20230312550, Example 34]
900000 M⁻¹ s⁻¹ | N#C[C@@H]1CSCN1C(=O)CNC(=O)c1ccnc2ccc(N3CCC(F)(F)CC3)cc12 [US20230312550, Example 35]
3e+06 M⁻¹ s⁻¹ | N#C[C@@H]1CSCN1C(=O)CNC(=O)c1ccnc2ccc(N3CCCC(F)(F)C3)cc12 [US20230312550, Example 36]
1e+06 M⁻¹ s⁻¹ | CC1(CF)CCN(c2ccc3nccc(C(=O)NCC(=O)N4CSC[C@H]4C#N)c3c2)CC1 [US20230312550, Example 37]
520000 M⁻¹ s⁻¹ | CC1(C)CN(c2ccc3nccc(C(=O)NCC(=O)N4CSC[C@H]4C#N)c3c2)CCC1(F)F [US20230312550, Example 38]
4.9e+06 M⁻¹ s⁻¹ | N#C[C@@H]1CSCN1C(=O)CNC(=O)c1ccnc2ccc(N3CCC(C(F)(F)F)CC3)cc12 [US20230312550, Example 39]
680000 M⁻¹ s⁻¹ | CO[C@H]1CCCN(c2ccc3nccc(C(=O)NCC(=O)N4CSC[C@H]4C#N)c3c2)C1 [US20230312550, Example 41]
1.8e+06 M⁻¹ s⁻¹ | COC1(C)CCN(c2ccc3nccc(C(=O)NCC(=O)N4CSC[C@H]4C#N)c3c2)CC1 [US20230312550, Example 42]
3.2e+06 M⁻¹ s⁻¹ | CC(C)OC1CCN(c2ccc3nccc(C(=O)NCC(=O)N4CSC[C@H]4C#N)c3c2)CC1 [US20230312550, Example 43]
1.7e+06 M⁻¹ s⁻¹ | C[C@H]1CC(F)(F)CCN1c1ccc2nccc(C(=O)NCC(=O)N3CSC[C@H]3C#N)c2c1 [US20230312550, Example 44]
5.4e+06 M⁻¹ s⁻¹ | N#C[C@@H]1CSCN1C(=O)CNC(=O)c1ccnc2ccc(N3CCCC[C@H]3CF)cc12 [US20230312550, Example 45]
3e+06 M⁻¹ s⁻¹ | N#C[C@@H]1CSCN1C(=O)CNC(=O)c1ccnc2ccc(N3CCCC4(CC4)C3)cc12 [US20230312550, Example 46]
1.4e+06 M⁻¹ s⁻¹ | CC1(C)CCN(c2ccc3nccc(C(=O)NCC(=O)N4CSC[C@H]4C#N)c3c2)C1 [US20230312550, Example 48]
8.8e+06 M⁻¹ s⁻¹ | N#C[C@@H]1CSCN1C(=O)CNC(=O)c1ccnc2ccc(N3CCC4(CC4)C3)cc12 [US20230312550, Example 49]
5.6e+06 M⁻¹ s⁻¹ | N#C[C@@H]1CSCN1C(=O)CNC(=O)c1ccnc2ccc(N3CC[C@H](F)C3)cc12 [US20230312550, Example 51]
6.8e+06 M⁻¹ s⁻¹ | N#C[C@@H]1CSCN1C(=O)CNC(=O)c1ccnc2ccc(N3CC[C@@H](F)C3)cc12 [US20230312550, Example 52]
680000 M⁻¹ s⁻¹ | N#C[C@@H]1CSCN1C(=O)CNC(=O)c1ccnc2ccc(N3CC4CCCC4C3)cc12 (some centres not stated) [US20230312550, Example 53]
6.2e+06 M⁻¹ s⁻¹ | C[C@H]1CCN(c2ccc3nccc(C(=O)NCC(=O)N4CSC[C@H]4C#N)c3c2)C1 [US20230312550, Example 54]
6.7e+06 M⁻¹ s⁻¹ | C[C@@H]1CCN(c2ccc3nccc(C(=O)NCC(=O)N4CSC[C@H]4C#N)c3c2)C1 [US20230312550, Example 55]
540000 M⁻¹ s⁻¹ | N#C[C@@H]1CSCN1C(=O)CNC(=O)c1ccnc2ccc(N3CCC[C@H]3C(F)(F)F)cc12 [US20230312550, Example 56]
8e+06 M⁻¹ s⁻¹ | CC1(C)CCCN1c1ccc2nccc(C(=O)NCC(=O)N3CSC[C@H]3C#N)c2c1 [US20230312550, Example 57]
8.8e+09 M⁻¹ s⁻¹ | N#C[C@@H]1CSCN1C(=O)CNC(=O)c1ccnc2ccc(N3CC4(CC4)C[C@@H]3CF)cc12 [US20230312550, Example 58]
